Results taken from patent US4698332A, “Expectorant” (Mect Corporation, priority 1984, dated 1987).
Counter-ions that a name gives are not always drawn. Like-named read-outs stand apart in the source and are kept apart here.

Key:
palatine mucosa of frog = assay: Mucociliary transport of frog palatine mucosa (Example 8, Table 6); format: cell-based; conditions: for activation at 100 µg/mL: 10^-1 mg/ml; for activation at 100 µg/mL / activation at 10 µg/mL / activation at 1 µg/mL / activation at 0.1 µg/mL: mean ± SD, over 20.0% significant, read-out: Acceleration (mucociliary transport); for activation at 10 µg/mL: 10^-2 mg/ml; for activation at 1 µg/mL: 10^-3 mg/ml; for activation at 0.1 µg/mL: 10^-4 mg/ml
Description: Mucociliary transport was measured by the particle transport method. After decapitation of a frog, the surface of the palatine mucosa was separated with minimized damage and of fixed to a cork plate in a Petri dish which was then filled with 20 ml of Ringer's solution (trishydrochloric acid). The palatine mucosa was left in this state for 30 minutes before the commencement of measurement. For measurement, the Ringer's solution was removed and fine pieces of cork (capable of passing pharmaceutical sieve No. 5 but not capable of passing No. 6) were placed on the surface of the palatine mucosa, and the time (in seconds) required for the cork piece to move 1 cm was measured. The duration of movement, i.e., moving speed, was measured also in the state immediately after the removal of the Ringer's solution or pharmaceutical solution.

ciliated cell = assay: Rotating ciliated explant (Example 9, Table 7); format: cell-based; conditions: for activation at 100 µg/mL: 10^-1 mg/ml; for activation at 100 µg/mL / activation at 10 µg/mL / activation at 1 µg/mL / activation at 0.1 µg/mL: mean ± SD, > 20.0 significant, read-out: Acceleration (rotating ciliated explant); for activation at 10 µg/mL: 10^-2 mg/ml (terbutaline 1-^-2 [sic]); for activation at 0.1 µg/mL: 10^-4 mg/ml
Description: Human ciliated cells were collected from a normal trachea by means of a branchoscope, the ciliated cells being separated by rubbing the bronchus while observing through the branchoscope, while the collection of frog cilitated cells was conducted by rubbing the palatine mucosta, without being specially careful. […] The groups of cells were transferred to a cover slip and one drop of chicken plasma (prepared by Difco Company) and one drop of 50% chicken embryo extract were added to the cells, thus forming clots. The rotary motion in the clots was recorded by means of a video recorder and the number of rotations per minute was measured. The agents were dissolved in the Medium 199 and were injected through a tube attached to a rose chamber. The state of rotary motion 5 minutes, 10 minutes and 15 minutes after the injection were recorded by means of a video recorder, and the number of revolutions was measured.
A test was conducted to examine the above-mentioned effect by using sodium salt of N-Acetylneuraminic Acid, in accordance with the same testing method as that of Example 2.

[1] = tested on: purulent sputum from patients with diffuse panbronchiolitis; assay: MTR of purulent sputum after sodium salt treatment (Example 10); set-up: species or system human sputum; frog palatine mucosa; conditions: 1 mg/ml sputum
Description: (§1) The sputum used as the specimens was collected from 12 samples of patients suffering from chronic obstructive lung disease. N-acetylneuraminic acid was added to the specimen sputum in the ratios of 5 mg/ml sputum and 1 mg/ml sputum, and the specimen was left for 1 hour at 4° C. before measurement. Sputum which has not been treated by N-acetylneuraminic acid was used as a comparison example. A palatine mucosa obtained from a decapitated frog head was kept at constant temperature and humidity until the mucus liquid of the frog itself depleted. The specimen sputum was placed on the dried palatine mucosa, and the speed of movement of the sputum was observed through a noumenal microscope, thus measuring the MTR. The pH value of the sputum was measured by means of an electronic model HM-SAp pH meter, while the spinnability was measured by a device developed by Nagaoka and Yamanaka (disclosed in Transactions of 2nd Symposium of Cough and sputum, published July 20, 1979). The yield value was measured by Dulfano's double-tube method which is shown in the American Review of Respiratory Diseases, Vol. 104, p88, 1971.
(§2) Effect of sodium salt of N-acetylneuraminic acid on sputum was examined in accordance with the testing method explained in connection with Example 5.

[2] = Rheological properties and pH of purulent sputum after sodium salt treatment (Example 10); set-up: species or system human; conditions: 1 mg/ml sputum
Description: as §1, §2

[3] = Acute toxicity test of sodium salt of N-acetylneuraminic acid, mouse (Example 11); set-up: species or system ICR mice; conditions: in vivo
Description: (§3) A test was conducted to examine the acute toxicity of sodium salt of N-acetylneuraminic acid, using mice, rats, and guinea pig by means of per as, subcutaneous injection, intravenous injection, intraperitoneal injection, and inhalation.
(§4) 20% (W/V) dissolved in distilled water

[4] = Acute toxicity test of sodium salt of N-acetylneuraminic acid, rat (Example 11); format: in vivo, SD rats; conditions: in vivo
Description: as §3, §4
(§5) Inhalation was conducted by 1hr exposure to mist.

rat = assay: as above; format: in vivo, SD rats; conditions: inhalation, 1hr exposure to mist
Description: as §3, §4, §5

[5] = Acute toxicity test of sodium salt of N-acetylneuraminic acid, guinea pig (Example 11); set-up: species or system Hartley guinea pig; conditions: in vivo, intravenous injection, 95% 2,355-4,087
Description: as §3
Hartley guinea pig: 6 weeks old
as §4

[6] = ip, intraperitoneal injection, first line (sex not given)
[7] = ip, intraperitoneal injection, second line (sex not given)
[8] = po, per os, first line (sex not given)
[9] = po, per os, second line (sex not given)
[10] = sc, subcutaneous injection, first line (sex not given)
[11] = sc, subcutaneous injection, second line (sex not given)

## CC(=O)N[C@H]1[C@H]([C@H](O)[C@H](O)CO)OC(O)(C(=O)O)C[C@@H]1O (stereo partly drawn) [sodium salt of N-acetylneuraminic acid]
Palatine mucosa of frog; 5 min, 5 min after applied
  activation at 100 µg/mL: 10.7 ± 19.2%
  activation at 10 µg/mL: 20.8 ± 25.5%
  activation at 1 µg/mL: 16.2 ± 19.5%
  activation at 0.1 µg/mL: 2.6 ± 22.2%
Palatine mucosa of frog; 10 min, 10 min after applied
  activation at 100 µg/mL: 8.5 ± 23.4%
  activation at 10 µg/mL: 18 ± 29.7%
  activation at 1 µg/mL: 18.9 ± 22.1%
  activation at 0.1 µg/mL: 8.5 ± 21.9%
Palatine mucosa of frog; 0.25 h, 15 min after applied
  activation at 100 µg/mL: 7.4 ± 24.7%
  activation at 10 µg/mL: 5.7 ± 24.9%
  activation at 1 µg/mL: 17.7 ± 34%
  activation at 0.1 µg/mL: 7.1 ± 27.2%
Palatine mucosa of frog; Table 6
  Effect on MTR of frog palatine mucosa: acceleration of the MTR of the frog palatine mucosa in a certain dependency on the dose
Palatine mucosa of frog; acetylcholine at 10^-4 mg/ml
  Effect compared with acetylcholine: subtantially equivalent to that of the acetylcholine
Ciliated cell; 10^-3 mg/ml
  Effect on number of rotations: A significant number of rotations was observed
Ciliated cell; 5 min, 5 min after perfusion
  activation at 100 µg/mL: 0%
  activation at 10 µg/mL: 1.5 ± 11.6%
  activation at 0.1 µg/mL: -3.4 ± 9.7%
Ciliated cell; 5 min, 10^-3 mg/ml, 5 min after perfusion
  activation at 1 µg/mL: 11.6 ± 29.8%
Ciliated cell; 10 min, 10 min after perfusion
  activation at 100 µg/mL: 4.7 ± 6.6%
  activation at 10 µg/mL: 2.1 ± 18.2%
  activation at 0.1 µg/mL: 0.6 ± 10.6%
Ciliated cell; 10 min, 10^-3 mg/ml, 10 min after perfusion
  activation at 1 µg/mL: 20.7 ± 27.5%
Ciliated cell; 0.25 h, 15 min after perfusion
  activation at 100 µg/mL: 15.4 ± 9.3%
  activation at 10 µg/mL: 3.7 ± 29.3%
  activation at 0.1 µg/mL: -5 ± 8.2%
Ciliated cell; 0.25 h, 10^-3 mg/ml, 15 min after perfusion
  activation at 1 µg/mL: 16.2 ± 32.3%
[1]
  Change of sputum MTR: significant increase in pH value and MTR
[1]; 15 specimens, mean ± S.D., before 9 ± 5, P < 0.01
  MTR after treatment: 12 ± 5 mm/min.
[2]
  Change of spinnability: generally increased
  Change of sputum pH: significant increase in pH value
  Change of yield value: a reduction was observed with regard to the yield value
[2]; 15 specimens, mean ± S.D., before 0.8 ± 1.5
  Yield value after treatment: 0.3 ± 0.6 mmH2 O
[2]; 15 specimens, mean ± S.D., before 7.48 ± 0.41, P < 0.001
  pH after treatment: 7.91 ± 0.43
[2]; 15 specimens, mean ± S.D., before 13 ± 14
  Spinnability after treatment: 21 ± 28 mm
[3]; [6]
  LD50 at 336 h: > 5000 mg/kg
[3]; [7]
  LD50 at 336 h: > 5000 mg/kg
[3]; iv, intravenous injection, first line (sex not given), 95% 5,679-7,084
  LD50 at 336 h: 6290 mg/kg
[3]; iv, intravenous injection, second line (sex not given), 95% 7,214-9,073
  LD50 at 336 h: 7950 mg/kg
[3]; [8]
  LD50 at 336 h: > 5000 mg/kg
[3]; [9]
  LD50 at 336 h: > 5000 mg/kg
[3]; [10]
  LD50 at 336 h: > 5000 mg/kg
[3]; [11]
  LD50 at 336 h: > 5000 mg/kg
[4]; [6]
  LD50 at 336 h: > 5000 mg/kg
[4]; [7]
  LD50 at 336 h: > 5000 mg/kg
[4]; iv, intravenous injection, first line (sex not given), 95% 2,638-3,342
  LD50 at 336 h: 2970 mg/kg
[4]; iv, intravenous injection, second line (sex not given)
  LD50 at 336 h: > 5000 mg/kg
[4]; [8]
  LD50 at 336 h: > 5000 mg/kg
[4]; [9]
  LD50 at 336 h: > 5000 mg/kg
[4]; [10]
  LD50 at 336 h: > 5000 mg/kg
[4]; [11]
  LD50 at 336 h: > 5000 mg/kg
rat; first line (sex not given)
  LD50: > 4,000 mg/m^3
rat; second line (sex not given)
  LD50: > 4,000 mg/m^3
[5]
  LD50 at 336 h: 2860 mg/kg
